The target in the test is T1, Kras and SOS1 (biotin-tagged human Kras loaded with GDP, His-tagged human SOS1) (Homo sapiens, UniProt P01116, G12D).
T1 construct: made in house; host or cells: E. coli (stated for Kras only)
Briefly: Protein-protein interaction inhibition between Kras and SOS1 (KrasGl2D-SOS PPI) using AlphaScreen. In kind it is binding. As to conditions: AlphaScreen; biotin-tagged human Kras loaded with GDP, His-tagged human SOS1; read-out: KRAS G12D-SOS PPI IC50. The procedure, abridged:
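Kras was produced in E. coli, purified, then loaded with GDP. It was paired via streptavidin acceptor beads with His-SOS1 held on nickel donor beads, and proximity signal at 520-620 nm was read after 680 nm illumination.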
Background: Bead proximity is the source of the signal in Alpha formats.

17 molecules from patent US12371454B2, “Cyclic peptide compound having Kras inhibitory action” (priority 2019, dated 2025) can be followed below.

Positions of bridges follow the written chain, without caps; N, C: chain ends. Non-standard residues stand in square brackets, D forms with d. Residues, ends and D or L forms follow the SMILES beside them. *: point of attachment. hPhe(3-Cl-4-CF3) = N[C@@H](CCc1ccc(C(F)(F)F)c(Cl)c1)C(=O)O; NMePhe(3,4-F2) = CN[C@@H](Cc1ccc(F)c(F)c1)C(=O)O; NMeAbu(4,4,4-F3) = CN[C@@H](CC(F)(F)F)C(=O)O; NMePhe(3-Br) = CN[C@@H](Cc1cccc(Br)c1)C(=O)O; NMePhe(4-Me) = CN[C@@H](Cc1ccc(C)cc1)C(=O)O; NMePhe(4-F) = CN[C@@H](Cc1ccc(F)cc1)C(=O)O; NMePhe(2-Me) = CN[C@@H](Cc1ccccc1C)C(=O)O; Abu(4,4,4-F3) = N[C@@H](CC(F)(F)F)C(=O)O; NMeAla(cPent) = CN[C@@H](CC1CCCC1)C(=O)O; NMeGly(cPent) = CN[C@H](C(=O)O)C1CCCC1; NMeCha = CN[C@@H](CC1CCCCC1)C(=O)O; NMeChg = CN[C@H](C(=O)O)C1CCCCC1; NMeF = CN[C@@H](Cc1ccccc1)C(=O)O; NMeI = CC[C@H](C)[C@H](NC)C(=O)O; Gly(cPr) = N[C@H](C(=O)O)C1CC1; NMeD = CN[C@@H](CC(=O)O)C(=O)O; NMeL = CN[C@@H](CC(C)C)C(=O)O; NMeV = CN[C@H](C(=O)O)C(C)C; d(β3hA) = C[C@@H](N)CC(=O)O; NMeS = CN[C@@H](CO)C(=O)O; Morpholide = C1CN(*)CCO1; NMeA = CN[C@@H](C)C(=O)O; Piperidide = C1CCN(*)CC1; dNMeA = CN[C@H](C)C(=O)O; Ac5c = NC1(C(=O)O)CCCC1; Aze = O=C(O)[C@@H]1CCN1; Ac4c = NC1(C(=O)O)CCC1; Cyclopropyl = C1CC1*; Sar = CNCC(=O)O; Propyl = CCC*

T1 sequence (P01116 1-188 isoform P01116-2 G12D): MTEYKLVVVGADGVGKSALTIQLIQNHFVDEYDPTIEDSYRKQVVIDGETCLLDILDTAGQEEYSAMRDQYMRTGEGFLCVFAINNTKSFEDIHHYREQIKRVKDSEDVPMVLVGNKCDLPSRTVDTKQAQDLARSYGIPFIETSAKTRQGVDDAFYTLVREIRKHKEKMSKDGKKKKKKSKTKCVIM

`CC[C@H](C)[C@@H]1NC(=O)[C@H](CC(C)C)N(C)C(=O)C[C@@H](C(=O)N(C)C)N(C)C(=O)[C@H]([C@@H](C)CC)N(C)C(=O)C2(CCCC2)NC(=O)[C@@H]2CCCN2C(=O)[C@H](CCc2ccc(C(F)(F)F)c(Cl)c2)NC(=O)CN(C)C(=O)[C@H](Cc2ccc(C)cc2)N(C)C(=O)CN(C)C(=O)CN(C)C1=O` [Compound 1836] ([NMeL]I[Sar][Sar][NMePhe(4-Me)][Sar][hPhe(3-Cl-4-CF3)]P[Ac5c][NMeI][NMeD]-NMe2; lactam N-11): the half-maximal inhibitory concentration (IC50) (commonly the point on the concentration scale where inhibition reaches its midpoint) is 0.47 nM. As for `CC[C@H](C)[C@@H]1NC(=O)[C@H](CC(C)C)N(C)C(=O)C[C@@H](C(=O)N2CCCCC2)N(C)C(=O)[C@H](C2CCCCC2)N(C)C(=O)C2(CCCC2)NC(=O)[C@@H]2CCCN2C(=O)[C@H](CCc2ccc(C(F)(F)F)c(Cl)c2)NC(=O)CN(C)C(=O)[C@H](CC(F)(F)F)N(C)C(=O)CN(C)C(=O)CN(C)C1=O` [Compound 1841] ([NMeL]I[Sar][Sar][NMeAbu(4,4,4-F3)][Sar][hPhe(3-Cl-4-CF3)]P[Ac5c][NMeChg][NMeD]-Piperidide; lactam N-11), the half-inhibitory concentration (IC50) was found to be 4.4 nM. Under `CC[C@H](C)[C@@H]1NC(=O)[C@H](C)N(C)C(=O)C[C@@H](C(=O)N2CCCCC2)N(C)C(=O)[C@H](C(C)C)N(C)C(=O)C2(CCCC2)NC(=O)[C@@H]2CCCN2C(=O)[C@H](CCc2ccc(C(F)(F)F)c(Cl)c2)NC(=O)[C@@H](C)N(C)C(=O)[C@H](Cc2ccccc2)N(C)C(=O)CN(C)C(=O)CN(C)C1=O` [Compound 1844] ([NMeA]I[Sar][Sar][NMeF][dNMeA][hPhe(3-Cl-4-CF3)]P[Ac5c][NMeV][NMeD]-Piperidide; lactam N-11) stands 17 nM; under `CC[C@H](C)[C@@H]1NC(=O)[C@H](CC(C)C)N(C)C(=O)C[C@@H](C(=O)N2CCOCC2)N(C)C(=O)[C@H](C(C)C)N(C)C(=O)C2(CCCC2)NC(=O)[C@@H]2CCCN2C(=O)[C@H](CCc2ccc(C(F)(F)F)c(Cl)c2)NC(=O)CN(C)C(=O)[C@H](CC2CCCC2)N(C)C(=O)CN(C)C(=O)CN(C)C1=O` [Compound 1848] ([NMeL]I[Sar][Sar][NMeAla(cPent)][Sar][hPhe(3-Cl-4-CF3)]P[Ac5c][NMeV][NMeD]-Morpholide; lactam N-11), 1.4 nM. On to `CC[C@H](C)[C@@H]1NC(=O)[C@H](C)N(C)C(=O)C[C@@H](C(=O)N2CCCCC2)N(C)C(=O)[C@H](C(C)C)N(C)C(=O)C2(CCCC2)NC(=O)[C@@H]2CCCN2C(=O)[C@H](CCc2ccc(C(F)(F)F)c(Cl)c2)NC(=O)[C@@H](C)N(C)C(=O)[C@H](Cc2ccc(F)cc2)N(C)C(=O)[C@@H]2CCCN2C(=O)CN(C)C1=O` [Compound 1853] ([NMeA]I[Sar]P[NMePhe(4-F)][dNMeA][hPhe(3-Cl-4-CF3)]P[Ac5c][NMeV][NMeD]-Piperidide; lactam N-11), for which the IC50 was determined as 8.9 nM. In the case of `CCCOC[C@H]1C(=O)N(C)[C@H](C(=O)N2CCCCC2)CC(=O)N(C)[C@@H](CC(C)C)C(=O)N[C@@H]([C@@H](C)CC)C(=O)N(C)[C@@H](C)C(=O)N2CC[C@H]2C(=O)N(C)[C@@H](CC2CCCCC2)C(=O)N(C)CC(=O)N[C@@H](CCc2ccc(C(F)(F)F)c(Cl)c2)C(=O)N2CCC[C@H]2C(=O)NC2(CCCC2)C(=O)N1C` [Compound 1855] ([NMeL]I[NMeA][Aze][NMeCha][Sar][hPhe(3-Cl-4-CF3)]P[Ac5c][NMeS](Propyl)[NMeD]-Piperidide; lactam N-11) it was 340 nM; in that of `CC[C@H](C)[C@@H]1NC(=O)[C@H](CC(C)C)N(C)C(=O)C[C@@H](C)NC(=O)[C@H](C2CCCCC2)N(C)C(=O)C2(CCCC2)NC(=O)[C@@H]2CCCN2C(=O)[C@H](CCc2ccc(C(F)(F)F)c(Cl)c2)NC(=O)CN(C)C(=O)[C@H](Cc2ccc(C)cc2)N(C)C(=O)CN(C)C(=O)CN(C)C1=O` [Compound 1856] (cyclo([Ac5c][NMeChg][d(β3hA)][NMeL]I[Sar][Sar][NMePhe(4-Me)][Sar][hPhe(3-Cl-4-CF3)]P)), 5.4 nM. Consider `CC[C@H](C)[C@@H]1NC(=O)[C@H](CC(C)C)N(C)C(=O)C[C@@H](C(=O)N2CCCCC2)N(C)C(=O)[C@H](COC2CC2)N(C)C(=O)C2(CCCC2)NC(=O)[C@@H]2CCCN2C(=O)[C@H](CCc2ccc(C(F)(F)F)c(Cl)c2)NC(=O)CN(C)C(=O)[C@H](CC2CCCCC2)N(C)C(=O)CN(C)C(=O)CN(C)C1=O` [Compound 1857] ([NMeL]I[Sar][Sar][NMeCha][Sar][hPhe(3-Cl-4-CF3)]P[Ac5c][NMeS](Cyclopropyl)[NMeD]-Piperidide; lactam N-11), for which the IC50 amounted to 19 nM.

Regarding `CC[C@H](C)[C@@H]1NC(=O)[C@H](CC(C)C)N(C)C(=O)C[C@@H](C(=O)N(C)C)N(C)C(=O)[C@H]([C@@H](C)CC)N(C)C(=O)C2(CCCC2)NC(=O)[C@@H]2CCCN2C(=O)[C@H](CCc2ccc(C(F)(F)F)c(Cl)c2)NC(=O)CN(C)C(=O)[C@H](CC2CCCCC2)N(C)C(=O)[C@@H]2CCN2C(=O)[C@H](C)N(C)C1=O` [Compound 1858] ([NMeL]I[NMeA][Aze][NMeCha][Sar][hPhe(3-Cl-4-CF3)]P[Ac5c][NMeI][NMeD]-NMe2; lactam N-11), the half-maximal inhibitory concentration (IC50) worked out at 1.1 nM. In the case of `CC(C)C[C@H]1C(=O)N[C@@H](C2CC2)C(=O)N(C)CC(=O)N(C)CC(=O)N(C)[C@@H](CC2CCCCC2)C(=O)N(C)CC(=O)N[C@@H](CCc2ccc(C(F)(F)F)c(Cl)c2)C(=O)N2CCC[C@H]2C(=O)NC2(CCCC2)C(=O)N(C)[C@@H](C2CCCCC2)C(=O)N(C)[C@H](C(=O)N2CCCCC2)CC(=O)N1C` [Compound 1862] ([NMeL][Gly(cPr)][Sar][Sar][NMeCha][Sar][hPhe(3-Cl-4-CF3)]P[Ac5c][NMeChg][NMeD]-Piperidide; lactam N-11), the IC50 amounted to 2 nM. With `CC(C)C[C@H]1C(=O)N[C@@H](CC(F)(F)F)C(=O)N(C)[C@@H](C)C(=O)N2CC[C@H]2C(=O)N(C)[C@@H](CC2CCCCC2)C(=O)N(C)CC(=O)N[C@@H](CCc2ccc(C(F)(F)F)c(Cl)c2)C(=O)N2CCC[C@H]2C(=O)NC2(CCCC2)C(=O)N(C)[C@@H](C(C)C)C(=O)N(C)[C@H](C(=O)N2CCCCC2)CC(=O)N1C` [Compound 1864] ([NMeL][Abu(4,4,4-F3)][NMeA][Aze][NMeCha][Sar][hPhe(3-Cl-4-CF3)]P[Ac5c][NMeV][NMeD]-Piperidide; lactam N-11), the IC50 was 48 nM.

Regarding `CC[C@H](C)[C@@H]1NC(=O)[C@H](CC(C)C)N(C)C(=O)C[C@@H](C(=O)N(C)C)N(C)C(=O)[C@H]([C@@H](C)CC)N(C)C(=O)C2(CCCC2)NC(=O)[C@@H]2CCCN2C(=O)[C@H](CCc2ccc(C(F)(F)F)c(Cl)c2)NC(=O)CN(C)C(=O)[C@H](CC2CCCCC2)N(C)C(=O)CN(C)C(=O)CN(C)C1=O` [Compound 1865] ([NMeL]I[Sar][Sar][NMeCha][Sar][hPhe(3-Cl-4-CF3)]P[Ac5c][NMeI][NMeD]-NMe2; lactam N-11), the IC50 was found to be 0.43 nM. Under `CC[C@H](C)[C@@H]1NC(=O)[C@H](CC(C)C)N(C)C(=O)C[C@@H](C(=O)N(C)C)N(C)C(=O)[C@H]([C@@H](C)CC)N(C)C(=O)C2(CCCC2)NC(=O)[C@H](Cc2cccc(Br)c2)N(C)C(=O)[C@H](CCc2ccc(C(F)(F)F)c(Cl)c2)NC(=O)CN(C)C(=O)[C@H](Cc2ccc(C)cc2)N(C)C(=O)[C@@H]2CCN2C(=O)[C@H](C)N(C)C1=O` [Compound 1873] ([NMeL]I[NMeA][Aze][NMePhe(4-Me)][Sar][hPhe(3-Cl-4-CF3)][NMePhe(3-Br)][Ac5c][NMeI][NMeD]-NMe2; lactam N-11) stands 33 nM; under `CC[C@H](C)[C@@H]1NC(=O)[C@H](CC(C)C)N(C)C(=O)C[C@@H](C(=O)N2CCOCC2)N(C)C(=O)[C@H](C2CCCCC2)N(C)C(=O)C2(CCC2)NC(=O)[C@@H]2CCCN2C(=O)[C@H](CCc2ccc(C(F)(F)F)c(Cl)c2)NC(=O)CN(C)C(=O)[C@H](CC2CCCCC2)N(C)C(=O)CN(C)C(=O)CN(C)C1=O` [Compound 1875] ([NMeL]I[Sar][Sar][NMeCha][Sar][hPhe(3-Cl-4-CF3)]P[Ac4c][NMeChg][NMeD]-Morpholide; lactam N-11), 0.42 nM; under `CC[C@H](C)[C@@H]1NC(=O)[C@H](CC(C)C)N(C)C(=O)C[C@@H](C(=O)N2CCCCC2)N(C)C(=O)[C@H]([C@@H](C)CC)N(C)C(=O)C2(CCCC2)NC(=O)[C@H](Cc2ccc(F)cc2)N(C)C(=O)[C@H](CCc2ccc(C(F)(F)F)c(Cl)c2)NC(=O)CN(C)C(=O)[C@H](Cc2ccc(C)cc2)N(C)C(=O)[C@@H]2CCN2C(=O)[C@H](C)N(C)C1=O` [Compound 1876] ([NMeL]I[NMeA][Aze][NMePhe(4-Me)][Sar][hPhe(3-Cl-4-CF3)][NMePhe(4-F)][Ac5c][NMeI][NMeD]-Piperidide; lactam N-11), 98 nM. `CC[C@H](C)[C@@H]1NC(=O)[C@H](C)N(C)C(=O)C[C@@H](C(=O)N(C)C)N(C)C(=O)[C@H]([C@@H](C)CC)N(C)C(=O)C2(CCCC2)NC(=O)[C@H](Cc2ccc(F)c(F)c2)N(C)C(=O)[C@H](CCc2ccc(C(F)(F)F)c(Cl)c2)NC(=O)CN(C)C(=O)[C@H](Cc2ccc(C)cc2)N(C)C(=O)[C@@H]2CCN2C(=O)[C@H](C)N(C)C1=O` [Compound 1878] ([NMeA]I[NMeA][Aze][NMePhe(4-Me)][Sar][hPhe(3-Cl-4-CF3)][NMePhe(3,4-F2)][Ac5c][NMeI][NMeD]-NMe2; lactam N-11): the IC50 came out at 8.8 nM. Under `CC[C@H](C)[C@@H]1NC(=O)[C@H](CC(C)C)N(C)C(=O)C[C@@H](C(=O)N(C)C)N(C)C(=O)[C@H](C2CCCC2)N(C)C(=O)C2(CCCC2)NC(=O)[C@H](Cc2ccccc2C)N(C)C(=O)[C@H](CCc2ccc(C(F)(F)F)c(Cl)c2)NC(=O)CN(C)C(=O)[C@H](CC2CCCCC2)N(C)C(=O)[C@@H]2CCN2C(=O)[C@H](C)N(C)C1=O` [Compound 1880] ([NMeL]I[NMeA][Aze][NMeCha][Sar][hPhe(3-Cl-4-CF3)][NMePhe(2-Me)][Ac5c][NMeGly(cPent)][NMeD]-NMe2; lactam N-11) stands 13 nM.
